Data taken from patent US20060084697A1, “Pi3k antagonists as radiosensitizers” (priority 2002, published 2006).

Experiments:
[1] = test system: Akt; test: Western blot of radiation-induced Akt phosphorylation in HUVEC; assay type: cell-based, human; details: HUVEC
Excerpt: HUVEC cells were obtained from Clonetics and were maintained in EBM-2 medium supplemented with EGM™-2MV SINGLEQUOTS® (Bio-Whittaker, Inc., Walkersville, Md., United States of America). An Eldorado-8 Cobalt-60 teletherapy unit (Atomic Energy of Canada Limited, Mississauga, Ontario, Canada) was used to irradiate endothelial cell cultures at a dose rate of 0.84 Gy per minute. Delivered doses ranging from 0 to 12 Gy were verified by use of thermoluminescence detectors.
In order to determine if Akt is phosphorylated in response to irradiation, cultured HUVEC cells were serum starved for 4 hours, exposed to irradiation, and the phosphorylation of Akt was examined in cell extracts by Western blotting. Total cellular protein was extracted after radiation treatment as follows. Cells were counted and then washed with iced-cold PBS twice before the addition of lysis buffer (M-PER™ mammalian protein extraction reagent; Pierce Chemical Company, Rockford, Ill., United States of America; or 20 mM Tris, 150 mM NaCl, 1 mM EDTA, 1% Triton X-100, 2.5 mM sodium pyrophosphate, 1 mM phenylmethylsulphonyl fluoride (PMSF), and […] Leupeptin (Roche Molecular Biochemicals, Indianapolis, Ind., United States of America)). Protein concentrations were quantified using the Biorad method (Bradford, 1976). 50 μg protein was loaded into each well of an 8% sodium dodecyl […]-polyacrylamide gel electrophoresis (SDS-PAGE) gel and separated by electrophoresis. The proteins were subsequently transferred onto 0.45 μm nitrocellulose membranes. Membranes were blocked by incubation for 2 hours at room temperature in phosphate buffered saline-Triton (PBST: 0.9% NaCl, 0.3% Triton X-100, pH 7.4) containing 10% nonfat dry milk.
The presence of Akt protein on the membrane was determined as follows. The membranes were incubated with a 1:1000 dilution of rabbit antibody directed against either phosphorylated (Ser473) or non-phosphorylated human Akt overnight at 4° C. Rabbit antibodies were obtained from Cell Signaling Technology, Beverly, Mass., United States of America. The blots were then washed with PBST to remove unbound rabbit antibodies. The washed blots were then incubated for 1 hour at room temperature with a donkey anti-rabbit IgG secondary antibody (Amersham Biosciences, Piscataway, N.J., United States of America) diluted 1:1000 in PBST. The blots were again washed with PBST to remove unbound donkey antibodies. The presences of both phosphorylated and non-phosphorylated human Akt were determined by chemiluminescent detection of donkey anti-rabbit/rabbit anti-human Akt complexes using the ECL™ detection system (Amersham Biosciences) according to the manufacturer's protocol, followed by autoradiography. […]

[2] = test system: HUVEC cells; test: Clonogenic survival analysis of HUVEC; assay type: cell-based, human
Procedure: The ability of PI3K antagonist to suppress the clonogenic potential of HUVEC cells treated with radiation was assayed by clonogenic survival analysis. The ability of HUVEC cells treated with LY294002 30 minutes prior to irradiation to form colonies was compared to that of HUVEC cells treated with either radiation or LY294002 alone, and also to that of untreated HUVEC cells. […] Briefly, groups of three HUVEC culture plates were treated at each of four radiation dose levels: 2, 4, 6, and 8 Gy, either with or without prior treatment with PI3K antagonists as described in Example 2. After treatment with radiation and/or antagonists, cells were trypsinized, counted by hemocytometer, and subcultured into fresh medium. After 14 days, the cells were fixed with cold methanol and stained with 1% methylene blue. Colonies with greater than 50 cells were counted and the surviving fraction was determined.
To determine whether broad spectrum RTK inhibition enhances the cytotoxic effects of radiation on vascular endothelium, SU11248 was added 30 minutes prior to irradiation. HUVECs were treated with vehicle control, and either 100 nM SU11248 orvehicle combined with 6 Gy.

[3] = test system: GL261 glioma tumors; test: Power Doppler sonography of tumor blood flow, GL261 hind limb tumors; assay type: in vivo, C57BL/6J mice
Excerpt: Power Doppler sonography was used to study the response of tumor blood vessels to ionizing radiation. This method utilizes amplitude to measure blood flow in microvasculature. Tumors were imaged with a 10-5 MHz ENTOS® linear probe (Advanced Technology Laboratories, Inc., Bothell, Wash., United States of America) attached to an HDI® 5000 diagnostic ultrasound system (Advanced Technology Laboratories, Inc.). Power Doppler sonography images were obtained with the power gain set to 82%. Care was taken to minimize motion artifact. A 20-frame cineloop sweep of the entire tumor was obtained with the probe perpendicular to the long axis of the lower extremity along the entire length of the tumor. The images were analyzed using HDI® software (Advanced Technology Laboratories, Inc). This software allows direct evaluation of Power Doppler cineloop raw data. Color area was recorded for the entire tumor. Five mice were included in each treatment group. Values for color area were averaged for each tumor set and treated groups were compared to controls using the unpaired student t-test. GL261 glioma tumors were implanted in the hind limb of C57BL/6J mice as described in […] et al., 1998. […] Power Doppler analysis of tumor blood flow was measured on day 0, day 3, and day 7 after radiation treatment. […]

[4] = test system: GL261 tumors; test: Tumor volume assessment, growth delay, GL261; assay type: in vivo, C57BL/6 mice
Procedure: GL261 tumors were generated by subcutaneous injection of 10^6 cells into the right thighs of C57BL/6 mice as described in Example 6. […] An equal number of large and intermediate size tumors were present in each group. GL261 tumor-bearing mice were treated with 24 Gy ionizing radiation administered in 8 fractionated doses over 10 days. LY294002 was administered at 3 mg/kg by intraperitoneal injection 15 minutes prior to irradiation on days 1, 3, 5, and 7 of radiation therapy. Control mice received identical doses and schedules of either LY294002 alone or radiation alone. Twice each week, tumor volumes were measured using skin calipers as previously described (Grugel et al., 1995; […] et al., 1998; Staba et al., 1998). Briefly, tumor volumes were calculated using the formula: a×b×c/2, where a=maximal width dimension, b=maximal length dimension, and c=maximal depth dimension, which was derived from the formula for calculating the volume of an ellipsoid (πd^3/6). Data were calculated as the percent of original (day 0) tumor volume and graphed as fractional tumor volume plus or minus one standard deviation for each treatment group. Growth delay was defined as the number of days required for tumors to reach a volume of 1 cm^3. Untreated control tumors reached 1 cm^3 at 7 days.

## O=c1cc(N2CCOCC2)oc2c(-c3ccccc3)cccc12 [LY294002, 2-(4-Morpholinyl)-8-phenyl-4H-1-benzopyran-4-one]
[1]; wortmannin 4 nM or LY294002 2 μM
  total Akt levels: no effect
[1]; wortmannin 4 nM or LY294002 2 μM added 30 minutes prior to irradiation, 3 Gy
  Akt phosphorylation following irradiation: strong inhibition
[2]; HUVEC treated 30 minutes prior to 2, 4, 6, 8 Gy, p<0.05
  radiation-induced cytotoxicity compared to radiation alone: significantly enhanced
[2]; unirradiated HUVEC treated for 30 minutes
  plating efficiency, % of untreated control cells: 70%
[3]; LY294002 alone
  tumor blood flow: unchanged
[3]; LY294002 prior to 3 Gy irradiation
  tumor blood flow: obliterated
[4]; 3 mg/kg i.p. 15 minutes prior to irradiation on days 1, 3, 5, 7, 24 Gy in 8 fractions
  growth delay: days for tumors to reach 1 cm^3: > 15 days
[4]; 3 mg/kg i.p. on days 1, 3, 5, 7, alone, untreated 7 days
  growth delay: days for tumors to reach 1 cm^3: 9 days
